Measurements: ChEMBL document CHEMBL3745643, “Recent Advances in the Discovery of Norovirus Therapeutics” (J Med Chem, 2015)
Peptide text beside a SMILES is read from it. * marks the point of attachment. Pyrrolidide = C1CCN(*)C1; Cbz = O=C(OCc1ccccc1)*

What was measured:
[1] = Inhibition of Norovirus RNA dependent RNA polymerase by spectrophotometry
[2] = test system: Norovirus; test: Antiviral activity against Norovirus infected in HuH7 cells assessed as decrease in viral RNA level after 72 hrs by qRT-PCR analysis; format: functional, cell-based; conditions: Huh-7, 72 h
[3] = test system: Norovirus; test: Antiviral activity against Norovirus infected in HG23 cells assessed as decrease in viral RNA level by qRT-PCR analysis; format: functional, cell-based
[4] = Inhibition of recombinant His-tagged Norovirus 3C-like protease for 45 mins followed by addition of 30 uM EDANS-EPDFHLQGPEDLAK-Dabcyl substrate by FRET assay
[5] = Inhibition of Norovirus 3C-like protease by FRET assay

Cc1ccc(C(=O)Nc2ccc(S(=O)(=O)O)c3cccc(S(=O)(=O)O)c23)cc1NC(=O)c1cccc(NC(=O)Nc2cccc(C(=O)Nc3cc(C(=O)Nc4ccc(S(=O)(=O)O)c5cccc(S(=O)(=O)O)c45)ccc3C)c2)c1
EC50 [1]: 28 nM

Cc1nc(-c2ccccc2)sc1C(=O)Nc1sc2c(c1C#N)CCC2
EC50 [2]: 30.1 µM

C[C@@]1(O)[C@H](O)[C@@H](CO)O[C@H]1n1ccc(N)nc1=O
EC50 [3]: 18 µM

CC(C)C[C@H](NC(=O)OCc1ccccc1)C(=O)N[C@@H](Cc1ccccc1)C(=O)N[C@H](C=O)CCC(=O)N1CCCC1 (Cbz-Leu-Phe-Glu(Pyrrolidide)-aldehyde)
EC50 [4]: 75 nM

CCOC(=O)/C=C/[C@H](C[C@@H]1CCNC1=O)NC(=O)[C@@H](CC(=O)[C@@H](NC(=O)c1cc(C)on1)C(C)C)Cc1ccc(F)cc1 [RUPINTRIVIR]
EC50 [5]: 23 nM

Cc1ccc(C(=O)Nc2ccc(S(=O)(=O)O)c3cc(S(=O)(=O)O)cc(S(=O)(=O)O)c23)cc1NC(=O)c1cccc(NC(=O)Nc2cccc(C(=O)Nc3cc(C(=O)Nc4ccc(S(=O)(=O)O)c5cc(S(=O)(=O)O)cc(S(=O)(=O)O)c45)ccc3C)c2)c1 [SURAMIN HEXASODIUM]
EC50 [1]: 27 nM
